The values that follow come from US11472771B2, “Process for making amino diaryl ethers and amino diaryl ethers hydrochloride salts” (CELLESTIA BIOTECH AG, priority 2018, dated 2022).

Data set [1] is described as follows: Solubility in water at various pH-values. As to conditions: aqueous buffer, thermodynamic from solid; in 0.01% HCl; 100 mg in 190 mL; read-out: solubility limit. The format is physicochemical.
Data set [2] can be described thus: Solubility in water at various pH-values. The format is physicochemical. The settings on record: for pH solution / soluble / calculated concentration charged: 500 mg in 14 ml; for soluble: conc. 33.33 mg/mL; for calculated concentration charged: not soluble. Here is the method:
The solubilities in water of 6-(4-(tert-butyl)phenoxy)pyridin-3-amine (formula (Ia)) and the monohydrochloride salt thereof, i.e. 6-(4-(tert-butyl)phenoxy)pyridin-3-amine monohydrochloride, were assessed at various pH-values according to Tables 3 and 4. The solubility in water of 6-(4-(tert-butyl)phenoxy)pyridin-3-amine (formula (Ia)) according to Table 3 was assayed as follows: Free base 500 mg were charged into 14 mL of acidic media at pH=2, 4, at neutral pH=7 and basic pH=10 to afford suspensions within calculated concentration of appr. 35 mg/mL. The solubility in water of 6-(4-(tert-butyl)phenoxy)pyridin-3-amine monohydrochloride according to Table 4 was assayed as follows: HCl salt 100 mg each were charged into acidic media at pH=2 and 4 and neutral media pH=7 to furnish solutions. Most important observation was to that at a neutral solution at pH=7 drops down to pH=1 by charging HCl salt 100 mg.

[3] abbreviates: 15% acetic acid soln., pH solvent 2.

In brackets after ≈: the same amount, converted by molar mass.

Regarding `CC(C)(C)c1ccc(Oc2ccc(N)cn2)cc1` [6-(4-(tert-butyl)phenoxy)pyridin-3-amine], the solubility (usually the dissolved amount per volume that the medium holds) in data set [1] came out at 530 µg/mL (≈ 2190 µM). The pH solution in data set [2] (setting [3]) is 2; in data set [2] (Fluke 33643 (pH = 4)), 4; in data set [2] (Fluke 33646 (pH = 7)), 7; in data set [2] (Fluke 33649 (pH = 10)) it was 10. For the same compound, the soluble result in data set [2] (setting [3]), in data set [2] (Fluke 33643 (pH = 4)), in data set [2] (Fluke 33646 (pH = 7)) and in data set [2] (Fluke 33649 (pH = 10)) was “no” in each case. Moreover, the calculated concentration charged in data set [2] (setting [3]), in data set [2] (Fluke 33643 (pH = 4)), in data set [2] (Fluke 33646 (pH = 7)) and in data set [2] (Fluke 33649 (pH = 10)) was 33.33 mg/mL each time. Also, in data set [2] (water, in words), the solubility in water entry is given as “very poorly soluble”.
